Measured values as given in the supplement of paper PMC11061612.

Assays:
Experiment in all cases: combination Emax (second highest fraction inhibited in the dose matrix, 72 h); higher = more inhibition; extreme values may be limits of the assay
COLO-829 (Melanoma) = tested on: COLO-829 (Melanoma)
How it was run: (§1)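 After 24 hours at 37°C and 5% CO2 in 1536-well plates, cells in DMEM/F12 or RPMI plus 10% FBS received two-drug dose matrices for 72 hours. Viability came from CellTiter-Glo 2.0 luminescence and was scaled as inhibition, anchored at 0 by vehicle wells and at 1 by blank wells. Combination Emax is taken as the second-highest inhibition in the matrix, and Bliss excess as the observed combination effect less EA + EB − EA·EB, with EA and EB the single-agent effects.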

[1] = tested on: MHH-PREB-1 (B-Cell Non-Hodgkin's Lymphoma)
How it was run: as §1

[2] = tested on: UMC-11 (Other Solid Carcinomas)
How it was run: as §1

[3] = tested on: NCI-H747 (Colorectal Carcinoma)
How it was run: as §1

[4] = tested on: KYSE-410 (Esophageal Squamous Cell Carcinoma)
How it was run: as §1

[5] = tested on: KARPAS-231 (B-Cell Non-Hodgkin's Lymphoma)
How it was run: as §1

[6] = tested on: CTB-1 (B-Cell Non-Hodgkin's Lymphoma)
How it was run: as §1

## CN(CCO)CC[C@H](CSc1ccccc1)Nc1ccc(S(=O)(=O)NC(=O)c2ccc(N3CCC([C@@H](O)c4ccccc4-c4ccc(Cl)cc4)CC3)cc2)cc1S(=O)(=O)C(F)(F)F [AZD4320] + C[C@@H](Nc1cc(F)cc(F)c1)c1cc(C(=O)N(C)C)cc2c(=O)cc(N3CCOCC3)oc12 [AZD8186] (first compound max 1 µM, 7x7, partner max 3 µM)
COLO-829 (Melanoma)
  combination Emax: 0.277
[1]
  combination Emax: 0.277
[2]
  combination Emax: 0.375
[3]
  combination Emax: 0.511
[4]
  combination Emax: 0.299
[5]
  combination Emax: 1
[6]
  combination Emax: 0.669
